Measurements from patent publication EP4664463A1, “COMPUTER-IMPLEMENTED METHOD FOR OLFACTORY PROPERTY PREDICTION” (Givaudan SA, priority 2024, dated 2025).
“And” between values parts separate entries of the source, which are not always exact repeats. Equal values may be shown once. Read-outs that look alike come from different tables or passages of the source.

Tests used:
[1] = tested on: library of all class I OR with C-terminal domain RNKQIRDALKRLLKRKCCRRR (SEQ ID NO: 741); assay: Screening of the library of all class I OR with carboxylic acid ligands (luciferase); type: cell-based, human; conditions: full class I OR library (n = 77)
Protocol: All human class I OR and all key genetic variants of these OR were synthesized with a sequence coding for the identical C-terminal domain […] (SEQ ID NO: 741) in the vector pcDNA3.1(+) to generate a library of all class I OR with an improved C-terminal domain. Class I OR library members
Parallel transfection experiments were conducted with all these plasmids (n = 77, SEQ ID NO: 760, OR51F1 was excluded due to poor plasmid yield) and cells expressing the different OR were stimulated with one given ligand at a time. In total 10 different carboxylic acids ligands were tested on the full library of class I receptors.

[2] = target: T1, OR identified in the library screening (receptor named per line) (Homo sapiens, UniProt Q8NGN4); assay: Confirmatory dose-response of library hits, wild-type OR vs OR with C-terminus SEQ ID NO: 221 (Table 17); type: cell-based; conditions: receptor OR10G9, wild-type sequence; read-out: Potency EC50 wild-type (converted)
T1 construct: expressed in transfected cells; host or cells: HEK293T stably expressing human RTP1S(V227I) and RTP2(L220R) (general method)
Protocol: (§3) Selected ligand - OR pairs were then tested in a confirmatory test with a dose response analysis.
(§4) Dose-response analysis with the cognate ligand was then performed for both the wild-type and the modified sequence.

[3] = target: T2, OR identified in the library screening (receptor named per line) (Homo sapiens, UniProt Q8NGG4); assay: as above; type: cell-based; conditions: receptor OR8H1, wild-type sequence; read-out: Potency EC50 wild-type (converted)
T2 construct: expressed in transfected cells; host or cells: HEK293T stably expressing human RTP1S(V227I) and RTP2(L220R) (general method)
Protocol: as §3, §4

OR7A17 [4] = target: T3, OR7A17 (Homo sapiens, UniProt O14581); assay: Detection of Ambrofix spiked into Geranium oil on OR7A17 with SEQ ID 221; type: cell-based
T3 construct: expressed in transfected cells; host or cells: HEK293T cells stably expressing human RTP1S (V227I) and RTP2 (L220R) (general approach)
T3 sequence (O14581 with tags, fused parts or gaps): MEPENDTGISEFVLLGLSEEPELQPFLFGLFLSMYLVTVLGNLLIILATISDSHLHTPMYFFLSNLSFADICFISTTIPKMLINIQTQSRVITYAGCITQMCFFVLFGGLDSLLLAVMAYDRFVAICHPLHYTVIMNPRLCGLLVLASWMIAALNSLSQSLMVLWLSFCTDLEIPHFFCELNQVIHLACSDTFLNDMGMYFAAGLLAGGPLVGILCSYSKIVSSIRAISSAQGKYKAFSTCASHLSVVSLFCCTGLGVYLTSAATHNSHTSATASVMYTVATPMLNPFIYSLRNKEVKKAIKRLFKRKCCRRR
Protocol: These mixtures were tested with OR7A17 with a C-terminal domain of SEQ ID 221 (a DNA sequence encoding the modified receptor is included as SEQ ID NO: 611) as described in example 20.

OR7A17 [5] = assay: Luciferase dose-response, wild-type vs changed C-terminus (SEQ ID NO: 86); type: cell-based, human
Excerpt: (§1) To create an expression plasmid, an OR coding sequence fused at the end of TM7 to the desired C-terminus sequence was synthesized by a DNA synthesis service provider (BioCat GmbH, Germany) and inserted into pcDNA3.1(+) (Invitrogen, MA, USA) downstream of the CMV promoter sequence (SEQ ID NO: 82) using BamHI and Notl restriction sites. All the synthetic OR nucleotide sequences described below in Examples 1-15 further contained at their N-terminus a nucleotide sequence encoding a signal peptide (mmLucy-FLAG-rho, SeQ ID NOs: 80, 81) and at the C-terminus the bgh terminator sequence (SEQ ID NO: 83). All the OR expression plasmids also contain a Kozak sequence (GCCACC) between the BamHI restriction site and the start codon of the signal peptide. These plasmids thus contain a constitutively expressed OR gene.
(§2) Thus, optimal improvement of activity is not achieved by the approach of just using the parent C-terminus and mutating it towards consensus, but rather by exchanging the C-terminal sequence with the optimized sequence described herein.

OR7A17 [6] = target: T4, OR7A17 (Homo sapiens, UniProt O14581, D296E/I297V/R299D); assay: as above; type: cell-based
T4 construct: expressed in transfected cells; host or cells: HEK293T cells stably expressing human RTP1S (V227I) and RTP2 (L220R)
Excerpt: as §1, §2

OR7A17 [7] = target: T5, OR7A17 (Homo sapiens, UniProt O14581); assay: as above; type: cell-based; conditions: wild-type
T5 construct: expressed in transfected cells; host or cells: HEK293T cells stably expressing human RTP1S (V227I) and RTP2 (L220R)
Excerpt: as §1, §2
T5 sequence (O14581 whole entry): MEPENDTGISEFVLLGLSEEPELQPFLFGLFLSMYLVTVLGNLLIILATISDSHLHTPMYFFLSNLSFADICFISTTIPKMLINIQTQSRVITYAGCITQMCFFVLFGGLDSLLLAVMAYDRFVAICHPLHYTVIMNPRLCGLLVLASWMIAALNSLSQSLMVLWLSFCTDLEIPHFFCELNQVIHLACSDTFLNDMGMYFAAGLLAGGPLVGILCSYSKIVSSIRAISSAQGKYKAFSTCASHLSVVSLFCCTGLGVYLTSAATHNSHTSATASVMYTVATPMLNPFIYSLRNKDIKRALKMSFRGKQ

OR1N2 [8] = target: T6, OR1N2 (Homo sapiens, UniProt Q8NGR9); type: cell-based; conditions: wild-type
T6 construct: expressed in transfected cells; host or cells: HEK293T cells stably expressing human RTP1S (V227I) and RTP2 (L220R)
Excerpt: as §1
T6 sequence (Q8NGR9 whole entry): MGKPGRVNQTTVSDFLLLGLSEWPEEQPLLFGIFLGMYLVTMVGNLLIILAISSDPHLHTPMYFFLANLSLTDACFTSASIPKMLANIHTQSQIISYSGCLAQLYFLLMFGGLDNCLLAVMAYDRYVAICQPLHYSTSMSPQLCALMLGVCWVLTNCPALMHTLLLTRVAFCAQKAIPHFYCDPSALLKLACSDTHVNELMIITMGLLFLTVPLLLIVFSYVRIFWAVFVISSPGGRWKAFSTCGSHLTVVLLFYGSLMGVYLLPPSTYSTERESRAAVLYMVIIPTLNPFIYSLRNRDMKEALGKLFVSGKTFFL

OR1N2 [9] = target: T7, OR1N2 (Homo sapiens, UniProt Q8NGR9); type: cell-based; conditions: changed C-term. SEQ ID NO: 86
T7 construct: expressed in transfected cells; host or cells: HEK293T cells stably expressing human RTP1S (V227I) and RTP2 (L220R)
Excerpt: as §1
T7 sequence (Q8NGR9 with tags, fused parts or gaps): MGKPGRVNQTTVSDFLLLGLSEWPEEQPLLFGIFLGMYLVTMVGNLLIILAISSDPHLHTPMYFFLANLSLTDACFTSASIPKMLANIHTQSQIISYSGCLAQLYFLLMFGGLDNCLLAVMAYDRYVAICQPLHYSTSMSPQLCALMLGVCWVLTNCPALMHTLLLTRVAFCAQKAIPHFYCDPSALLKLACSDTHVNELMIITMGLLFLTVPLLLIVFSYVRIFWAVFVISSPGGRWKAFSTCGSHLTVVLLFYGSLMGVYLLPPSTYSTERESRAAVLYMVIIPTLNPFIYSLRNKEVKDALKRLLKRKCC

OR5A2 [10] = assay: Dose-dependent luciferase induction by muscone of OR5A2 C-terminal variants; type: cell-based, human; conditions: modified OR5A2
Excerpt: as §1
Table 11. Dose-dependent induction OR5A2 with two different variants of the C-terminal sequence motif (Shown is fold-induction of luciferase)

OR5A2 [11] = target: T8, OR5A2 (Homo sapiens, UniProt Q8NGI9); assay: Luciferase dose-response, wild-type vs changed C-terminus (SEQ ID NO: 86); type: cell-based; conditions: wild-type OR5A2
T8 construct: expressed in transfected cells; host or cells: HEK293T cells with stably integrated human RTP1S (V227I) and RTP2 (L220R)
T8 sequence (Q8NGI9 1-324): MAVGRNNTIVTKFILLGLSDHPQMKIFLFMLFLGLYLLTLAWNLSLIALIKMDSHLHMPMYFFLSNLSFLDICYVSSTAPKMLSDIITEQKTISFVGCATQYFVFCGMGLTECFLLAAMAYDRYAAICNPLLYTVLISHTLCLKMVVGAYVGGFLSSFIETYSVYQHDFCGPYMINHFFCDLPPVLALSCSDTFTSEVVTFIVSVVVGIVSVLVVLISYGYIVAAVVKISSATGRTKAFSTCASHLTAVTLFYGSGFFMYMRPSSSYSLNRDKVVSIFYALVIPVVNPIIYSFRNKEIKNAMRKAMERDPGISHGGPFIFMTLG
Excerpt: as §1

OR5A2 [12] = target: T9, OR5A2 (Homo sapiens, UniProt Q8NGI9); assay: as above; type: cell-based; conditions: OR5A2 with SEQ ID NO: 86
T9 construct: expressed in transfected cells; host or cells: HEK293T cells with stably integrated human RTP1S (V227I) and RTP2 (L220R)
T9 sequence (Q8NGI9 with tags, fused parts or gaps): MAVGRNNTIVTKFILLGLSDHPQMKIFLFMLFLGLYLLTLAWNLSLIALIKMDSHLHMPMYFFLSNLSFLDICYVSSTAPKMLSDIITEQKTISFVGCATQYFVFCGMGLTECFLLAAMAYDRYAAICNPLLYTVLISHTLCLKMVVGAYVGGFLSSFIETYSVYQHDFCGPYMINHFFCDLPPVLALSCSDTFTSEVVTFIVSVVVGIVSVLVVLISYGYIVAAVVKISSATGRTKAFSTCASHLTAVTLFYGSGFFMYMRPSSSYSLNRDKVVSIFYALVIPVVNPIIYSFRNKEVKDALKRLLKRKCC
Excerpt: as §1

OR5AN1 = target: T10, OR5AN1 (Homo sapiens, UniProt Q8NGI8); assay: Chimeric OR5AN1 with C-terminal sequence of OR1N2 (luciferase); type: cell-based
T10 construct: expressed in transfected cells; host or cells: HEK293T stably expressing human RTP1S(V227I) and RTP2(L220R)
Excerpt: Similarly, the C-terminal sequence of OR5AN1 was replaced with the C-terminal sequence of the ambrettolide receptor OR1 N2.

[13] = tested on: library of all class II OR with modified C-terminal domain RNKEVKKAIKRLFKRKCCRRR (SEQ ID NO: 221); assay: Screening of the library of all class II OR with single odorants (luciferase); type: cell-based, human; conditions: full class II OR library (n = 408); maximal non-cytotoxic concentration
Protocol: All human class II OR and all key genetic variants of these OR were synthesized with a sequence coding for an identical modified C-terminal domain […] (SEQ ID NO: 221) in the vector pcDNA3.1(+) to generate a library of all class II OR with an improved C-terminal domain. Class II OR library members with modified C-terminal domains
Parallel transfection experiments were conducted with all these plasmids (n = 408) and cells expressing the different OR were stimulated with one given ligand at a time, tested at the maximal, clearly non-cytotoxic concentration. In total 26 different ligands were tested on the full library of class II receptors.

[14] = target: T11, OR identified in the library screening (receptor named per line) (Homo sapiens, UniProt Q8NGX5); assay: Confirmatory dose-response of library hits, wild-type OR vs OR with C-terminus SEQ ID NO: 221 (Table 17); type: cell-based; conditions: receptor OR10K1, wild-type sequence; read-out: Potency EC50 wild-type (converted)
T11 construct: expressed in transfected cells; host or cells: HEK293T stably expressing human RTP1S(V227I) and RTP2(L220R) (general method)
Protocol: as §3, §4

[15] = target: T12, OR identified in the library screening (receptor named per line) (Homo sapiens, UniProt Q8NGC4, S73G); assay: as above; type: cell-based; conditions: receptor OR10G3(S73G), wild-type sequence; read-out: Potency EC50 wild-type (converted)
T12 construct: expressed in transfected cells; host or cells: HEK293T stably expressing human RTP1S(V227I) and RTP2(L220R) (general method)
T12 sequence (Q8NGC4 whole entry S73G): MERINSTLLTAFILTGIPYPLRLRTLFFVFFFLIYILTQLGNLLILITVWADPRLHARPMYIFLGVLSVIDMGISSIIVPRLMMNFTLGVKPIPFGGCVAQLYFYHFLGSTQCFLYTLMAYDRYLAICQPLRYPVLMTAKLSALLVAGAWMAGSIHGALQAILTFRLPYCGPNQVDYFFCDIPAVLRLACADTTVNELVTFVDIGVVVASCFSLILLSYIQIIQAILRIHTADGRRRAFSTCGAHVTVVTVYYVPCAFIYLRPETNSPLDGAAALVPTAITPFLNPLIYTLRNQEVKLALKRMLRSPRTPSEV
Protocol: as §3, §4

T4 sequence (O14581 with tags, fused parts or gaps D296E/I297V/R299D): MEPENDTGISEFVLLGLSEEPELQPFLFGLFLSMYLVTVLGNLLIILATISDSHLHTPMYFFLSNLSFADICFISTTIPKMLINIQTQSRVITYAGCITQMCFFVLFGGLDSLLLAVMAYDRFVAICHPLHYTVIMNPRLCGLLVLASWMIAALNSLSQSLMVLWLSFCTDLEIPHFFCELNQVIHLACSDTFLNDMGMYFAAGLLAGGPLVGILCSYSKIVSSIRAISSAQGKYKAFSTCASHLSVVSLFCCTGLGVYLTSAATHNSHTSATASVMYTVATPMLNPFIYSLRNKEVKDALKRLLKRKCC
T10 sequence (Q8NGI8 with tags, fused parts or gaps limits assumed): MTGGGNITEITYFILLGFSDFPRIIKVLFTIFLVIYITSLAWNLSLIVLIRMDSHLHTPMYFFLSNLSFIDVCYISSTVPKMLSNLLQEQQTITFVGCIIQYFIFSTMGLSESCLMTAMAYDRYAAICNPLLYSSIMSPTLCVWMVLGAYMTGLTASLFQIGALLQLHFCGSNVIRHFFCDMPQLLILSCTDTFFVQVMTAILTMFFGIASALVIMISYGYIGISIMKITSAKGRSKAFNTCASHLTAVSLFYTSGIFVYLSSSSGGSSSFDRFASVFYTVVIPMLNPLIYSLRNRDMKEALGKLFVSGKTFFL

**Q.** For `CC(C)CC(=O)O` [3-Methylbutanoic acid], which “Activated OR and OR variants” value [1] is on record?
**A.** No activation observed

**Q.** For `CCOc1cc(C)ccc1O` [Ultravan il], which EC50 [2] is on record?
**A.** 91.4 µM

**Q.** For `N#CC(=C1CCCCC1)c1ccccc1` [Peonile], which EC50 [3] is on record?
**A.** 17.3 µM

**Q.** What does the source list for `CC1(C)CCCC2(C)C1CCC1(C)OCCC12` (stereo not shown) [Ambrofix]?
**A.** detectable concentration of target ingredient against a complex matrix (OR7A17 [4]): ≤ 0.1%; Comments on efficacy (OR7A17 [5]): 2-fold lower maximal induction for wild-type; Fold-improvement potency (OR7A17 [5]): 4.2; Fold-improvement threshold (OR7A17 [5]): 18 and 18.4; lowering of detection threshold vs wild-type (OR7A17 [5]; OR7A17 C-terminus altered towards consensus): 3 fold; detection threshold for two-fold induction (OR7A17 [5]; OR7A17 C-terminus altered towards consensus (5 amino acids)): 0.6 µM; EC50 (OR7A17 [6]; changed C-term SEQ ID NO: 86, read-out: Potency EC50): 1.3 µM; Detection threshold; concentration for 2-fold induction (OR7A17 [6]; changed C-term. SEQ ID NO: 86): 0.1 µM; Detection threshold; concentration for 2-fold induction (OR7A17 [7]): 1.9 µM; EC50 (OR7A17 [7]; read-out: Potency EC50): 5.6 µM

**Q.** With `O=C1CCCCCCCC=CCCCCCCO1` [Ambrettolide] as the compound, how does the “Detection threshold; concentration for 2-fold induction” value (OR1N2 [8]) read?
**A.** 1.33 µM

**Q.** And the “Detection threshold; concentration for 2-fold induction” value (OR1N2 [9])?
**A.** 0.26 µM

**Q.** Which results are given for `C[C@@H]1CCCCCCCCCCCCC(=O)C1` [Muscone]?
**A.** concentration at which induction starts (OR5A2 [10]): 0.03 µM; activation of the wild-type receptor (OR5A2 [11]): No activation; concentration at which activation occurs (OR5A2 [12]): 1 µM; functional response (OR5AN1): not showing any functional response; Activated OR and OR variants [13]: OR5AN1, OR5A2

**Q.** For `CC(C)CCc1ccc2c(c1)OCC(=O)CO2` [7-(3-Methylbutyl)-benzo[b][1,4]dioxepin-3-one], which EC50 [14] is on record?
**A.** 6.8 µM

**Q.** For `COc1cc(C=O)ccc1O` [Vanillin], which EC50 [15] is on record?
**A.** 261 µM
